Measurements taken from patent US10676721B2, “Bacteriophages expressing antimicrobial peptides and uses thereof” (priority 2009, dated 2020).
Peptide text beside a SMILES is read from it.

Columns and labels:
[1] = Toxicity of AMPs (Table 3, method not described); design: unit not given here; details: two values per AMP
[2] = system: E. coli strain that expresses capsular polysaccharide K; test: Mixed culture of E. coli host strain and E. coli strain expressing capsular polysaccharide K; format: cell-based, Escherichia coli
Source text: The expression of the genomic payload of lytic peptides and proteins increases the utility of the engineered bacteriophage to treat heterologous infections.

Staphylococcus aureus = test: Co-culture of E. coli with Staphylococcus aureus; format: cell-based
Staph aureus = Staph aureus growth in sterile media isolated 6 hours after M13 infection of EMG2 (FIG. 30); format: cell-based, Staphylococcus aureus; details: no phage control 1.6
Description: The inventors isolated the media in which the antimicrobial agents were released. The inventors next infected a growing mid-log culture of EMG2 with the different wild-type and engineered M13 phage. At 6 hours post infection, the EMG2 cells were centrifuged at 13,000 g and filtered through a 0.2 um membrane to collect sterile media with the released AmP and enzyme. The media was replenished in nutrients by adding 5× concentrated LB solution. Mid-log Staph bacteria where then inoculated in the media at a concentration of 10^5 CFU/ml.
For example, the “no phage” or the “m13 mp 18” staph culture reach an OD of 0.8 within 4 hours whereas the “M13.pTRC.Omp.PonW3” media containing PonW3 (SEQ ID NO: 40) causes a growth delay by another 4 hours, the culture reaches the same OD of 0.8 only after 8 hours of growth. Finally, release of CHAP165 in the surrounding media due to phage reengineering limited staph growth to an OD level of 0.8 while compared to 1.6 for the no phage control and 1.2 for the wild M13mp18.

S. aureus = details: CHAP165, from ROSS 2009; cited from earlier work
[3] = system: antibiotic-resistant staphylococci; details: cited from earlier work

Molecule | Toxicity [1] | also measured
CC(C)C[C@H](NC(=O)[C@H](CC(C)C)NC(=O)[C@H](Cc1ccccc1)NC(=O)[C@H](CC(C)C)NC(=O)[C@H](CC(C)C)NC(=O)[C@@H](N)CC(C)C)C(=O)N[C@@H](CCCCN)C(=O)N[C@@H](CCCCN)C(=O)N[C@@H](CCCNC(=N)N)C(=O)N[C@@H](CCCCN)C(=O)N[C@@H](CCCCN)C(=O)N[C@@H](CCCNC(=N)N)C(=O)N[C@@H](CCCCN)C(=O)N[C@@H](Cc1ccc(O)cc1)C(=O)O [J589_D1] (H-LLLFLLKKRKKRKY-OH) | 512 | 
CC[C@H](C)[C@H](NC(=O)CNC(=O)[C@H](CCCNC(=N)N)NC(=O)[C@H](Cc1ccccc1)NC(=O)[C@@H](NC(=O)[C@H](Cc1c[nH]cn1)NC(=O)[C@H](Cc1c[nH]cn1)NC(=O)[C@H](Cc1ccccc1)NC(=O)[C@@H](N)Cc1ccccc1)[C@@H](C)CC)C(=O)N[C@H](C(=O)N[C@@H](Cc1c[nH]cn1)C(=O)N[C@H](C(=O)NCC(=O)N[C@@H](CCCCN)C(=O)N[C@H](C(=O)N[C@H](C(=O)N[C@@H](Cc1c[nH]cn1)C(=O)N[C@@H](CCCCN)C(=O)N[C@@H](CC(C)C)C(=O)N[C@H](C(=O)N[C@H](C(=O)NCC(=O)O)[C@@H](C)O)C(C)C)[C@@H](C)CC)[C@@H](C)O)C(C)C)C(C)C [J589_H3] (H-FFHHIFRGIVHVGKTIHKLVTG-OH) | 128 | 
CC[C@H](C)[C@H](NC(=O)[C@H](CCCCN)NC(=O)[C@H](CC(C)C)NC(=O)[C@H](C)NC(=O)[C@H](CO)NC(=O)CNC(=O)[C@H](CC(C)C)NC(=O)[C@@H](N)Cc1c[nH]c2ccccc12)C(=O)NCC(=O)N[C@@H](C)C(=O)N[C@@H](CCCCN)C(=O)N[C@@H](CC(C)C)C(=O)N[C@@H](CC(C)C)C(=O)N1CCC[C@H]1C(=O)N[C@@H](CO)C(=O)N[C@H](C(=O)N[C@H](C(=O)NCC(=O)N[C@@H](CC(C)C)C(=O)N[C@@H](Cc1ccccc1)C(=O)N[C@@H](CCC(N)=O)C(=O)N[C@@H](CCCCN)C(=O)N[C@@H](CCCCN)C(=O)N[C@@H](CCCCN)C(=O)N[C@@H](CCCCN)C(=O)O)C(C)C)C(C)C [J589_J5] (H-WLGSALKIGAKLLPSVVGLFQKKKK-OH) | 32 | 
CC[C@H](C)[C@H](NC(=O)[C@H](C)NC(=O)[C@H](CCCCN)NC(=O)CNC(=O)[C@H](C)NC(=O)[C@H](Cc1c[nH]cn1)NC(=O)[C@@H](NC(=O)[C@H](C)NC(=O)CNC(=O)[C@H](CCCCN)NC(=O)[C@@H](NC(=O)[C@H](CC(C)C)NC(=O)[C@H](Cc1c[nH]c2ccccc12)NC(=O)CNC(=O)[C@H](Cc1ccccc1)NC(=O)[C@@H](N)Cc1ccccc1)[C@@H](C)CC)[C@@H](C)CC)C(=O)N[C@@H](Cc1c[nH]cn1)C(=O)NCC(=O)N[C@@H](CC(C)C)C(=O)N[C@H](C(=O)N[C@@H](Cc1c[nH]cn1)C(=O)N[C@@H](CCCNC(=N)N)C(=O)N[C@@H](CCCNC(=N)N)C(=O)N[C@@H](CCCNC(=N)N)C(=O)N[C@@H](Cc1c[nH]cn1)C(=O)O)[C@@H](C)CC [J589_J6] (H-FFGWLIKGAIHAGKAIHGLIHRRRH-OH) | 16 | 
CC[C@H](C)[C@H](NC(=O)CN)C(=O)N[C@@H](Cc1c[nH]c2ccccc12)C(=O)NCC(=O)N[C@H](C(=O)N[C@@H](CC(C)C)C(=O)N[C@@H](C)C(=O)N[C@@H](CCCCN)C(=O)N[C@H](C(=O)NCC(=O)N[C@H](C(=O)N[C@@H](CCCCN)C(=O)N[C@@H](C)C(=O)N[C@H](C(=O)N1CCC[C@H]1C(=O)N[C@@H](CCCNC(=N)N)C(=O)N[C@H](C(=O)N[C@H](C(=O)N[C@@H](CO)C(=O)N[C@@H](CCSC)C(=O)N[C@@H](CC(C)C)C(=O)N[C@@H](CCCCN)C(=O)N[C@@H](CCCCN)C(=O)N[C@@H](CCCCN)C(=O)N[C@@H](CCCCN)C(=O)N[C@@H](CCC(N)=O)C(=O)O)[C@@H](C)CC)C(C)C)C(C)C)[C@@H](C)CC)[C@@H](C)CC)[C@@H](C)O [J589_K4, Ponericin W3] (H-GIWGTLAKIGIKAVPRVISMLKKKKQ-OH) | 64 | 
CC[C@H](C)[C@H](NC(=O)[C@H](CCCCN)NC(=O)[C@H](CCCCN)NC(=O)[C@H](Cc1ccccc1)NC(=O)[C@H](CC(C)C)NC(=O)[C@H](CCCCN)NC(=O)[C@H](Cc1c[nH]c2ccccc12)NC(=O)[C@@H](N)CCCCN)C(=O)N[C@@H](CC(C)C)C(=O)N[C@@H](CCCCN)C(=O)N[C@@H](Cc1ccccc1)C(=O)N[C@@H](CC(C)C)C(=O)N[C@@H](Cc1c[nH]cn1)C(=O)N[C@@H](CC(C)C)C(=O)N[C@@H](C)C(=O)N[C@@H](CCCCN)C(=O)N[C@@H](CCCCN)C(=O)N[C@@H](Cc1ccccc1)C(=O)O [J6084_F10] (H-KWKLFKKILKFLHLAKKF-OH) | 32 | 
CC[C@H](C)[C@H](NC(=O)[C@H](CC(C)C)NC(=O)[C@H](C)NC(=O)CNC(=O)[C@H](Cc1c[nH]c2ccccc12)NC(=O)[C@@H](N)Cc1ccccc1)C(=O)N[C@@H](CCCCN)C(=O)NCC(=O)N[C@@H](C)C(=O)N[C@@H](C)C(=O)N[C@@H](CCCCN)C(=O)N[C@@H](CC(C)C)C(=O)N[C@H](C(=O)N1CCC[C@H]1C(=O)N[C@@H](CO)C(=O)N[C@H](C(=O)N[C@H](C(=O)NCC(=O)N[C@@H](CC(C)C)C(=O)N[C@@H](Cc1ccccc1)C(=O)N[C@@H](CCCCN)C(=O)N[C@@H](CCCCN)C(=O)N[C@@H](CCCCN)C(=O)N[C@@H](CCC(N)=O)C(=O)O)C(C)C)C(C)C)[C@@H](C)CC [J6084_H2, Ponericin W5] (H-FWGALIKGAAKLIPSVVGLFKKKQ-OH) | 32 | 
CC[C@H](C)[C@H](NC(=O)[C@H](C)NC(=O)[C@@H]1CCCN1C(=O)CNC(=O)[C@H](C)NC(=O)[C@H](CCCCN)NC(=O)[C@@H](NC(=O)[C@H](CC(C)C)NC(=O)CNC(=O)[C@H](CC(=O)O)NC(=O)[C@H](CCCNC(=N)N)NC(=O)[C@@H](NC(=O)[C@H](CC(N)=O)NC(=O)[C@H](CCC(N)=O)NC(=O)CNC(=O)[C@@H](NC(=O)[C@H](CCCNC(=N)N)NC(=O)[C@H](CCC(=O)O)NC(=O)[C@@H](NC(=O)[C@H](CCCCN)NC(=O)[C@H](CCCCN)NC(=O)[C@H](Cc1ccccc1)NC(=O)[C@H](Cc1ccccc1)NC(=O)[C@H](CCCCN)NC(=O)[C@H](Cc1c[nH]c2ccccc12)NC(=O)[C@@H](N)CCCNC(=N)N)[C@@H](C)CC)C(C)C)C(C)C)[C@@H](C)CC)C(=O)N[C@@H](CCC(N)=O)C(=O)N[C@H](C(=O)N[C@@H](CC(C)C)C(=O)NCC(=O)N[C@@H](C)C(=O)N[C@@H](C)C(=O)N[C@@H](CCCCN)C(=O)N[C@@H](C)C(=O)N[C@@H](CC(C)C)C(=O)O)C(C)C [J6090_C11] (H-RWKFFKKIERVGQNVRDGLIKAGPAIQVLGAAKAL-OH) | 256 | 
CC[C@H](C)[C@H](NC(=O)[C@H](CCCCN)NC(=O)[C@H](CC(C)C)NC(=O)[C@H](C)NC(=O)[C@H](CO)NC(=O)CNC(=O)[C@H](CC(C)C)NC(=O)[C@@H](N)Cc1c[nH]c2ccccc12)C(=O)NCC(=O)N[C@@H](C)C(=O)N[C@@H](CCCCN)C(=O)N[C@@H](CC(C)C)C(=O)N[C@@H](CC(C)C)C(=O)N1CCC[C@H]1C(=O)N[C@@H](CO)C(=O)N[C@H](C(=O)N[C@H](C(=O)NCC(=O)N[C@@H](CC(C)C)C(=O)N[C@@H](Cc1ccccc1)C(=O)N[C@@H](CCCCN)C(=O)N[C@@H](CCCCN)C(=O)N[C@@H](CCCCN)C(=O)N[C@@H](CCCCN)C(=O)N[C@@H](CCC(N)=O)C(=O)O)C(C)C)C(C)C [J6123_D7, Ponericin W1] (H-WLGSALKIGAKLLPSVVGLFKKKKQ-OH) | 64 | 
CHAP165 (protein) AKTQAEINKRLDAYAKGTVDSPYRVKKATSYDPSFGVMEAGAIDADGYYHAQCQDLITDYVLWLTDNKVRTWGNAKDQIKQSYGTGFKIHENKPSTVPKKGWIAVFTSGSYEQWGHIGIVYDGGNTSTFTILEQNWNGYANKKPTKRVDNYYGLTHFIEIPVKA |  | sterilization of the heterogeneous E. coli culture [2]: sterilize the heterogeneous E. coli culture completely; lysis of the E. coli strain that expresses capsular polysaccharide K ([2]; lysK165 expressed from engineered bacteriophage): able to lyse; lysis of the staphylococcal population (Staphylococcus aureus): able to complete lyse; OD level to which staph growth is limited (Staph aureus): 0.8; MIC SA (S. aureus): ~0.3 mg/L; lytic activity compared with the natural LysK enzyme [3]: twice stronger lytic activity
